Assay results reported in patent publication US20090130165A1, “MIF Inhibitors” (Cortical Pty Ltd, priority 2005, published 2009).
Like-named read-outs stand apart in the source and are kept apart here.

What was measured:
[1] = tested on: LPS-induced IL-6 production in RAW264.7 mouse macrophage cell line; experiment: Inhibition of LPS-induced production of IL-6 in RAW264.7 macrophages; format: cell-based; conditions: 50 uM compound, 100 ng/ml LPS 4 hr, RAW264.7 cells, relative to LPS+DMSO control
Experimental: MIF is an important factor in the innate immune response to toxins such as the bacterial endotoxin lipopolysaccharide (LPS). […] A compound with the ability to inhibit the biological activity of MIF would therefore inhibit the activation of cytokine production by macrophages in response to LPS. The RAW264.7 mouse macrophage cell line was propagated in DMEM/10% foetal calf serum (FCS) at 37° C. in 5% CO2. 24 hr prior to assay cells were seeded in 96-well tissue culture plates. Cells were allowed to adhere for 4 hr prior to transfer to DMEM/0.5% FCS for 18 hr. Cells were then treated with 50 uM compound in DMSO for 30 min prior to stimulation for 4 hr with 100 ng/ml LPS. Cell culture supernatants were then collected from each well and assayed for IL-6 levels by ELISA (R&D Systems) according to the manufacturer's instructions.

[2] = tested on: C57Bl/6j mice; experiment: In vivo assay of MIF antagonism: murine endotoxic shock model, serum TNF; set-up: species or system mouse; conditions: intra-peritoneal, 10, 1 and 0.1 mg/kg at 24 hours and 1 hour before LPS 1 mg/kg (FIG. 3)
Experimental: The activities of compounds were studied in the murine endotoxic shock model. This model has been previously shown to be dependent on MIF^(14). Administration of a compound which inhibits the cytokine activity of MIF would be expected to result hi a reduction in serum level s of the pro-inflammatory cytokine TNF.
Endotoxaemia was induced by intra-peritoneal Injection of C57Bl/6j mice with lipopolysaccharide (LPS) (1 mg/kg) in 200 μl saline. Animals were treated with either a saline solution (control) only, or LPS with vehicle or compounds B1 and A3 in vehicle at doses of 10, 1 and 0.1 mg/kg body weight, administered by intra-peritoncal injection at 24 hours and 1 hour before intra-peritoneal LPS injection. After 1 hour mice were humanely killed by CO2 inhalation then neck dislocation. Serum was obtained from blood obtained by cardiac puncture prior to death and measured for TNF levels by ELISA according to the manufacturer's instructions.

[3] = tested on: LPS-induced IL-6 production in RAW264.7 mouse macrophage cell line; experiment: Inhibition of LPS-induced production of IL-6 in RAW264.7 macrophages; format: cell-based; conditions: RAW264.7 cells, up to 100 μM compound (FIG. 1)
[4] = target: T1, immobilized recombinant MIF protein (Homo sapiens, UniProt P14174); experiment: Interaction of compounds with MIF protein by Surface Plasmon Resonance (Biacore S51); format: binding; conditions: SPR; for kon / Kinetics Method Kd (10^−3 s^−1) / Kd: immobilized MIF; for kon: association rate, read-out: Kinetics Method Ka (10^3 M^−1s^−1); for Kinetics Method Kd (10^−3 s^−1): dissociation rate; for equilibrium dissociation constant (KD) values, in words: immobilized recombinant MIF
T1 sequence (P14174 2-115 limits assumed): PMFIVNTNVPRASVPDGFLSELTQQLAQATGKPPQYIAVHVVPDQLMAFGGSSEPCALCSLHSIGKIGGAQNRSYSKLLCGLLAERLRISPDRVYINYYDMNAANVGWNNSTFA
Experimental: The interaction of compounds with MIF protein was characterized by Surface Plasmon Resonance (SPR) analysis using an S51 (Biacore International AB) automated small molecule biosensor assay system. Recombinant MIF protein was immobilized on a carboxymethyl dextran biosensor chip using amine coupling chemistry. Compound binding to the immobilized MIF protein was measured at 11 concentrations up to 100 uM (in duplicate), with corrections for the DMSO used as a solvent at a final concentration of 5%. The change in SPR output relative to that of a control underivatized reference spot was recorded over time. The affinity and stoichiometry of interaction was calculated using steady state and/or kinetics evaluation methods with software supplied by the manufacturer.

[5] = target: T2, Recombinant human MIF protein (Homo sapiens, UniProt P14174); experiment: Inhibition of MIF tautisomerase activity (L-dopachrome); format: biochemical; conditions: mean±standard deviation of 2-4 experiments
T2 sequence (P14174 2-115 limits assumed): T1 sequence (P14174 2-115 limits assumed)
Experimental: MIF protein has the ability in vitro to catalyze the tautisomerization of dopachrome^(15).
Recombinant human MIF protein was pre-incubated with compounds as indicated prior to the addition of L-dopachrome substrate. Tautomerase activity was determined by measurement of die decrease in absorbance at 475 nm after 2 min. […]

[6] = tested on: IL-1 induced COX-2 expression in S112 human dermal fibroblasts; experiment: Inhibition of interleukin-1 induction of cyclooxygenase-2 expression in S112 human dermal fibroblasts; format: cell-based; conditions: S112 cells, up to 100 μM compound, IL-1 0.1 ng/ml, 6 hours (FIG. 2)
Source text: The activity of compounds was studied in a bioassay for MIF-dependent cytokine effects of human S112 dermal fibroblasts. In these cells the induction of the expression of cyclooxygenase-2 (COX-2) protein by interleukin 1 (IL-1) is dependent upon the presence of endogenous MIF^(13). The expression of COX2 proteins is therefore sensitive to depiction of endogenous MIF by neutralizing antibody, gene knockout of targeting with small molecule inhibitors. A compound with the ability to inhibit the biological activity of MIF would therefore inhibit die activation of COX2 expression hi response to IL-1.
S112 human dermal fibroblasts were propagated in RPMI/10% foetal calf serum (FCS). Prior to experimentation, cells were seeded at 10^5 cells/ml in RPMI/0.1% BSA for 18 hours. Cells were treated with recombinant human IL-1 (0.1 ng/ml) and with each compound at concentrations ranging up to 100 μM. A control was treated only with recombinant human TL-1 (0.1 ng/ml) and vehicle (DMSO). After 6 hours, cells were collected and intracellular COX-2 protein determined by permeabilisation flow cytometry. […] Cellular fluorescence was determined using a flow cytometer. At least 5000 events were counted for each reading, each of which was performed in duplicate, and the results expressed in mean fluorescence intensity (MFI) after subtraction of negative control-labelled cell fluorescence.

[7] = Lower limits of aqueous solubility by nephelometry; format: physicochemical; conditions: phosphate-buffered saline with 0.005% (v/v) P20 and 5% DMSO, aqueous with cosolvent or surfactant or cyclodextrin, kinetic from dmso stock, 0.005% (v/v) P20, 5% DMSO, read-out: Solubility Lower Limit Range
Experimental: Lower limits of aqueous compound solubility were determined in a nepholometer in phosphate-buffered saline containing 0.005% (v/v) P20 and a final concentration of 5% DMSO. Briefly, compounds were initially dissolved in DMSO as a 10 mM stock solution and diluted to 1 mM and 0.5 mM working solutions with neat DMSO. The compounds were then titrated in DMSO and a constant volume of DMSO stock added to filtered PBS/P20 solution so that the final DMSO concentration was 5%. The solubility was then determined in clear, flat-bottom 96-well plates using the nephelometer and reported as the concentration range at which the compound begins to precipitate from solution.

[8] = tested on: Recombinant human MIF-induced leukocyte-endothelial cell adhesion in mice; experiment: rhMIF-induced leukocyte adhesion, intravital microscopy of cremaster muscle; format: in vivo, mouse; conditions: 30 mg/kg intraperitoneal 10 minutes prior to intrascrotal MIF, 4 hours (FIG. 5)
Source text: As will be known to those skilled in the art, the adherence of leukocytes to the endothelium in vivo can be studied using the technique of intravital microscopy^(18,19). As MIF induces leukocyte adherence to vascular endothelium as measured using intravital microscopy, a compound inhibiting the Cytokine or biological activity of MIF might be expected to inhibit the effects of MIF observable using intravital microscopy.
Mice were anesthetised with ketamine/xylazine, and the cremaster muscle was exteriorized onto an optically-clear viewing pedestal. The cremasteric microcirculation was visualized using an intravital microscope (Axioplan 2 Imaging; Carl Zeiss, Australia) with a 20× objective lens (LD Achroplan 20×/0.40 NA, Carl Zeiss, Australia) and a 10× eyepiece. Three-five postcapillary venules (25-40 μm in diameter) were examined for each experiment. Images were visualized using a video camera and recorded on video-tape for subsequent playback analysis. Recombinant human MIF ([…]) was injected intrascrotally in 150 μL saline, prior to intravital microscopy 4 hours later. Leukocyte-endothelial cell adhesion, was assessed as described by Gregory et al^(19). Compound 13 at a dose of 30 mg/kg or vehicle were administered by intraperitoneal injection 10 minutes prior to intrascrotal injection of MIF.

[9] = tested on: mice; experiment: Delayed-type hypersensitivity reaction to mBSA, footpad swelling; format: in vivo, mouse; conditions: 5 and 15 mg/kg/24 h IP, twice daily for 7 days prior to mBSA challenge and further 24 h (FIG. 4)
Source text: Delayed-type hypersensitivity reactions, which are initiated by T lymphocyte responses to recall antigens and mediated by many cell types including macrophages, are known to be dependent on the cytokine or biological activity of MIF^(16,17). For example, an anti-MIF monoclonal antibody suppresses delayed-type hypersensitivity reactions in vivo to methylated bovine scrum albumin (mBSA) injected into the skin of animals preimmunised with mBSA^(16). A compound inhibiting die cytokine or biological function of MIF might be expected to inhibit delayed-type hypersensitivity reactions in vivo.
Mice were immunised on day 0 with 200 μg of methylated BSA (mBSA; Sigma Chemical Co., Castle Hill, Australia) emulsified in 0.2 ml of Freund's complete adjuvant (CFA; Sigma) injected subcutaneously in the flank skin. At day 7, mice were given 100 μg mBSA in 0.1 ml CFA by intradermal injection at the base of the tail. […] Mice were killed 24 h later and footpad swelling quantified using micro calipers (Mitutoyo, Kawasaki-shi, Japan). […] Results were expressed as the difference in footpad swelling between mBSA and saline-injected footpads, and expressed as change in footpad thickness (mm). […] Treatment with compound 13 continued for a further 24 h and changes in footpad thickness relative to control paws were measured at that time.

[10] = kinetics evaluation, read-out: Kinetics Method Kd
[11] = steady state evaluation, 5% DMSO, read-out: Steady State Method (equilibrium dissociation constant KD)

kon [4] [M⁻¹ s⁻¹] | Kinetics Method Kd (10^−3 s^−1) [4] | Kd [4, 10] [µM] | Kd [4, 11] [µM] | equilibrium dissociation constant (KD) values, in words [4] | inhibition at 50 µM ([5]; 50 uM compound) [%] | inhibition at 100 µM ([5]; 100 uM compound) [%] | inhibition of IL-1 induced COX-2 expression, in words [6] | solubility [7] [µg/mL] | SMILES | inhibition at 50 µM [1] [%] | suppression of LPS-induced serum TNF levels, in words [2] | IC50 ([3]; Mus musculus) [µM] | inhibition of LPS-induced IL-6 production, in words [3] | reduction of MIF-induced leukocyte adhesion [8] | inhibition of DTH reactions (change in footpad thickness), in words [9]
2200 ± 1000 | 6.2 ± 1.2 10^−3 s^−1 | 3.6 ± 1 | 27 ± 2.3 | low micromolar range | 9 ± 4 | 17 ± 8 | – | – | CCCCSCC(=O)c1ccc2[nH]c(=O)sc2c1 [Compound 19, 6-((Butylthio)acetyl)-1,3-benzothiazol-2(3H)-one] | 82 ± 13 | significant dose-dependent suppression | 20 | dose-dependent inhibition | – | –
– | – | – | – | – | – | – | dose-dependent inhibition | – | O=C(O)CCSCC(=O)c1ccc2c(c1)CC(=O)N2 [Compound 2] | – | significant dose-dependent suppression | – | – | – | –
– | – | – | 5.1 | low micromolar range | – | – | – | > 140 | O=C(O)CCSCC(=O)c1ccc2[nH]c(=O)[nH]c2c1 [Compound 4, 3-((2-oxo-2-(2-oxo-2,3-dihydro-1H-benzimidazol-5-yl)ethyl)thio)propanoic acid] | 5 ± 49 | significant dose-dependent suppression | – | – | – | –
600 ± 200 | 1.3 ± 0.3 10^−3 s^−1 | 2.5 ± 1.2 | 10 ± 1.4 | low micromolar range | – | – | – | – | O=C(O)CCSCC(=O)c1cc2c(cc1Cl)NC(=O)C2 [Compound 13, 3-((2-(6-chloro-2-oxo-2,3-dihydro-1H-indol-5-yl)-2-oxoethyl)thio)propanoic acid] | 32 ± 30 | significant dose-dependent suppression | – | – | approximately 50% | significant inhibition
